Reference: patent publication US10865191B2, “Heterocyclic compounds useful as modulators of TNF alpha” (BRISTOL-MYERS SQUIBB COMPANY, priority 2015, dated 2020)

target: TNFα (Homo sapiens, UniProt P01375); assay: TNF induced HEK-Blue assay (NF-kB-driven secreted alkaline phosphatase reporter); assay type: cell-based; settings: TNF induced HEK-Blue assay IC50 value, TNFα 0.5 ng/mL, HEK-Blue-CD40L cells, 18 h
Procedure, shortened: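 HEK-Blue-CD40L cells (NF-kB-driven SEAP reporter), 20,000/well, added after 30 min pre-incubation of compound (0.004–25 μM final) with TNFα 0.5 ng/mL final at 37 °C; 18 h incubation. SEAP read with QUANTI-Blue at 620 nm; IC50 from 4-parameter logistic fit, normalized to unstimulated and stimulated DMSO controls.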

TNFα, sequence (P01375 77-233 limits assumed): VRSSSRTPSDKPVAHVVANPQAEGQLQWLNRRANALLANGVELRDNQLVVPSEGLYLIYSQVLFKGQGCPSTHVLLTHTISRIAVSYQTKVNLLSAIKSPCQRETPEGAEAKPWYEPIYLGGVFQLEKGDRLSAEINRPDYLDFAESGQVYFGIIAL

Row | IC50 [nM] | SMILES
1 | < 1000 | Cc1ccc(C)c(Nc2c(Cl)c(C)nc3ccc(-c4cnc(C(C)(C)O)nc4)cc23)c1 [Example 1, 2-(5-(3-chloro-4-((2,5-dimethylphenyl)amino)-2-methylquinolin-6-yl)pyrimidin-2-yl)propan-2-ol]

same assay, conditions: TNFα 0.5 ng/mL, HEK-Blue-CD40L cells, 18 h; read-out: TNF induced HEK-Blue assay IC50 value

Row | IC50 [nM] | SMILES
2 | < 1000 | CC(Nc1c(Cl)cnc2cc(F)c(-c3ccc(C(O)CO)cc3)cc12)c1cc(C(N)=O)ccc1F (single isomer, unassigned) [Example 601, 3-(1-((3-chloro-6-(4-(1,2-dihydroxyethyl)phenyl)-7-fluoroquinolin-4-yl)amino)ethyl)-4-fluorobenzamide]
3 | < 1000 | CC(Nc1c(Cl)cnc2cc(F)c(-c3cnc(N4CCN(C(=O)CCC(=O)O)CC4)nc3)cc12)c1ccccc1F (single isomer, unassigned) [Example 602, 4-(4-(5-(3-chloro-7-fluoro-4-((1-(2-fluorophenyl)ethyl)amino)quinolin-6-yl)pyrimidin-2-yl)piperazin-1-yl)-4-oxobutanoic acid]
4 | < 1000 | CC(O)C(=O)N1CCN(c2ncc(-c3cc4c(NC(C)c5ccccc5F)c(Cl)cnc4cc3F)cn2)CC1 (single isomer, unassigned) [Example 603, 1-(4-(5-(3-chloro-7-fluoro-4-((1-(2-fluorophenyl)ethyl)amino)quinolin-6-yl)pyrimidin-2-yl)piperazin-1-yl)-2-hydroxypropan-1-one]
5 | < 1000 | CC(Nc1c(Cl)cnc2cc(F)c(-c3cnc(N4CCN(C(=O)[C@@H](N)CO)CC4)nc3)cc12)c1ccccc1F (single isomer, unassigned) [Example 604]
6 | < 1000 | CC(Nc1c(Cl)cnc2cc(F)c(-c3cnc(N4CCN(C(=O)[C@@H](N)CC(=O)O)CC4)nc3)cc12)c1ccccc1F (single isomer, unassigned) [Example 605, (3 S)-3-amino-4-(4-(5-(3-chloro-7-fluoro-4-((1-(2-fluorophenyl)ethyl)amino)quinolin-6-yl)pyrimidin-2-yl)piperazin-1-yl)-4-oxobutanoic acid]
7 | < 1000 | CC(Nc1c(Cl)cnc2cc(F)c(-c3cnc(N4CCN(C(=O)[C@H](N)CO)CC4)nc3)cc12)c1ccccc1F (single isomer, unassigned) [Example 606]
8 | < 1000 | CC(Nc1c(Cl)cnc2cc(F)c(-c3cnc(N4CCN(C(=O)[C@H](N)CC(=O)O)CC4)nc3)cc12)c1ccccc1F (single isomer, unassigned) [Example 607]
9 | < 1000 | CC(Nc1c(Cl)cnc2cc(F)c(-c3cnc(N4CCNCC4)nc3)cc12)c1ccccc1F (single isomer, unassigned) [Example 608, 3-chloro-7-fluoro-N-(1-(2-fluorophenyl)ethyl)-6-(2-(piperazin-1-yl)pyrimidin-5-yl)quinolin-4-amine]
10 | < 1000 | CC(Nc1c(Cl)cnc2cc(F)c(-c3cnc(C(O)CN4CCC(C(=O)O)CC4)nc3)cc12)c1ccccc1F (single isomer, unassigned) [Example 610, 1-(2-(5-(3-chloro-7-fluoro-4-((1-(2-fluorophenyl)ethyl)amino)quinolin-6-yl)pyrimidin-2-yl)-2-hydroxyethyl) piperidine-4-carboxylic acid]
11 | < 1000 | CC(Nc1c(Cl)cnc2cc(F)c(-c3cnc(N4C[C@H]5CC[C@@H](C4)C5C(=O)O)nc3)cc12)c1ccccc1F (single isomer, unassigned) [Example 611]
12 | < 1000 | CC(Nc1c(Cl)cnc2c(F)cc(-c3cnc(C(C)(C)O)nc3)cc12)c1cc(Br)ccc1F (single isomer, unassigned) [Example 612, 2-(5-(4-((1-(5-bromo-2-fluorophenyl)ethyl)amino)-3-chloro-8-fluoroquinolin-6-yl)pyrimidin-2-yl)propan-2-ol]
13 | 10000 to 25000 | Cc1ccc(C)c(NCc2nc3ccc(-c4cnn(C)c4)cc3c(Nc3cc(C)ccc3C)c2Cl)c1 [Example 2, 3-chloro-N-(2,5-dimethylphenyl)-2-(((2,5-dimethylphenyl)amino)methyl)-6-(1-methyl-1H-pyrazol-4-yl)quinolin-4-amine]
14 | 1000 to 10000 | Cc1ccc(C)c(NCc2nc3ccc(-c4ccc(C#N)nc4)cc3c(Nc3cc(C)ccc3C)c2Cl)c1 [Example 3, 5-(3-chloro-4-((2,5-dimethylphenyl)amino)-2-(((2,5-dimethylphenyl)amino)methyl)quinolin-6-yl)picolinonitrile]
15 | 1000 to 10000 | CCOC(=O)c1nc2ccc(-c3ccc(C#N)nc3)cc2c(Nc2cc(C)ccc2C)c1Cl [Example 5, ethyl 3-chloro-6-(6-cyanopyridin-3-yl)-4-((2,5-dimethylphenyl)amino)quinoline-2-carboxylate]
16 | 1000 to 10000 | Cc1ccc(C)c(Nc2c(Cl)c(C)nc3ccc(-c4ccc(CN5CCN(C(=O)OC(C)(C)C)CC5)cc4)cc23)c1 [Example 6, tert-butyl 4-(4-(3-chloro-4-((2,5-dimethylphenyl)amino)-2-methylquinolin-6-yl)benzyl)piperazine-1-carboxylate]
17 | < 1000 | Cc1ccc(C)c(Nc2c(Cl)c(C)nc3ccc(-c4ccc(CN5CCNCC5)cc4)cc23)c1 [Example 7, 3-chloro-N-(2,5-dimethylphenyl)-2-methyl-6-(4-(piperazin-1-ylmethyl)phenyl)quinolin-4-amine]

Row | IC50 [nM] | SMILES
18 | < 1000 | CNC(=O)c1ccc(-c2ccc3nc(C)c(Cl)c(Nc4cc(C)ccc4C)c3c2)cn1 [Example 8, 5-(3-chloro-4-((2,5-dimethylphenyl)amino)-2-methylquinolin-6-yl)-N-methylpicolinamide]
19 | 10000 to 25000 | Cc1ccc(C)c(Nc2c(Cl)c(C)nc3ccc(-c4ccc(C(=O)O)nc4)cc23)c1 [Example 9, 5-(3-chloro-4-((2,5-dimethylphenyl)amino)-2-methylquinolin-6-yl)picolinic acid]
20 | 10000 to 25000 | CC(C)(O)c1ncc(-c2ccc3ncc(Cl)c(CNc4ccccc4)c3c2)cn1 [Example 11, 2-(5-(3-chloro-4-((phenylamino)methyl)quinolin-6-yl)pyrimidin-2-yl)propan-2-ol]
21 | 10000 to 25000 | O=C(O)CNCc1ccc(-c2ccc3ncc(Cl)c(N[C@@H](c4ccccc4F)C(F)F)c3c2)cc1 [Example 13, (S)-(4-(3-chloro-4-((2,2-difluoro-1-(2-fluorophenyl)ethyl)amino)quinolin-6-yl)benzyl)glycine]
22 | < 1000 | COC(=O)CN1CCN(c2ncc(-c3ccc4ncc(Cl)c(N[C@@H](c5ccccc5F)C(F)F)c4c3)cn2)CC1 [Example 14, (S)-methyl 2-(4-(5-(3-chloro-4-((2,2-difluoro-1-(2-fluorophenyl)ethyl)amino)quinolin-6-yl)pyrimidin-2-yl)piperazin-1-yl)acetate]
23 | < 1000 | O=C(O)CN1CCN(c2ccc(-c3ccc4ncc(Cl)c(N[C@@H](c5ccccc5F)C(F)F)c4c3)cn2)CC1 [Example 15, (S)-2-(4-(5-(3-chloro-4-((2,2-difluoro-1-(2-fluorophenyl)ethyl)amino)quinolin-6-yl)pyridin-2-yl)piperazin-1-yl)acetic acid]
24 | < 1000 | O=C(O)CN1CCN(c2ccc(-c3ccc4ncc(Cl)c(N[C@@H](c5ccccc5F)C(F)F)c4c3)cc2)CC1 [Example 16, (S)-2-(4-(4-(3-chloro-4-((2,2-difluoro-1-(2-fluorophenyl)ethyl)amino)quinolin-6-yl)phenyl)piperazin-1-yl)acetic acid]
25 | 10000 to 25000 | CNc1ncc(-c2ccc3ncc(Cl)c(N[C@H](C)c4ccccc4F)c3c2)cn1 [Example 17, (R)-3-chloro-N-(1-(2-fluorophenyl)ethyl)-6-(2-(methylamino)pyrimidin-5-yl)quinolin-4-amine]
26 | 1000 to 10000 | CCNCc1ccc(-c2ccc3ncc(Cl)c(N[C@H](C)c4ccccc4F)c3c2)cc1 [Example 29, (R)-3-chloro-6-(4-((ethylamino)methyl)phenyl)-N-(1-(2-fluorophenyl)ethyl)quinolin-4-amine]
27 | 10000 to 25000 | C[C@@H](Nc1c(Cl)cnc2ccc(-c3ccc(CN4CCC4)cc3)cc12)c1ccccc1F [Example 30, (R)-6-(4-(azetidin-1-ylmethyl)phenyl)-3-chloro-N-(1-(2-fluorophenyl)ethyl)quinolin-4-amine]
28 | 1000 to 10000 | Cc1ccc(C)c(Nc2c(Cl)c(C(=O)O)nc3ccc(-c4ccc(C#N)nc4)cc23)c1 [Example 31, 3-chloro-6-(6-cyanopyridin-3-yl)-4-((2,5-dimethylphenyl)amino)quinoline-2-carboxylic acid]
29 | < 1000 | Cc1ccc(C)c(Nc2c(Cl)c(C(=O)Nc3cccnc3)nc3ccc(-c4ccc(C#N)nc4)cc23)c1 [Example 32, 3-chloro-6-(6-cyanopyridin-3-yl)-4-((2,5-dimethylphenyl)amino)-N-(pyridin-3-yl)quinoline-2-carboxamide]
30 | 1000 to 10000 | CNC(=O)c1nc2ccc(-c3ccc(C#N)nc3)cc2c(Nc2cc(C)ccc2C)c1Cl [Example 33, 3-chloro-6-(6-cyanopyridin-3-yl)-4-((2,5-dimethylphenyl)amino)-N-methylquinoline-2-carboxamide]
31 | 1000 to 10000 | Cc1ccc(C)c(Nc2c(Cl)c(C(=O)N(C)C)nc3ccc(-c4ccc(C#N)nc4)cc23)c1 [Example 34, 3-chloro-6-(6-cyanopyridin-3-yl)-4-((2,5-dimethylphenyl)amino)-N,N-dimethylquinoline-2-carboxamide]
32 | 1000 to 10000 | Cc1ccc(C)c(Nc2c(Cl)c(C(=O)Nc3ccccc3)nc3ccc(-c4ccc(C#N)nc4)cc23)c1 [Example 35, 3-chloro-6-(6-cyanopyridin-3-yl)-4-((2,5-dimethylphenyl)amino)-N-phenylquinoline-2-carboxamide]
33 | < 1000 | Cc1ccc(C)c(Nc2c(Cl)c(C(=O)Nc3ccncc3)nc3ccc(-c4ccc(C#N)nc4)cc23)c1 [Example 36, 3-chloro-6-(6-cyanopyridin-3-yl)-4-((2,5-dimethylphenyl)amino)-N-(pyridin-4-yl)quinoline-2-carboxamide]
